One data set relates to patients with R/R DLBCL. In words: Treatment duration, modification, and exposure. It is filed as in vivo. How it is done:
CC‐122 hydrochloride, referred to here as CC‐122, as an active pharmaceutical ingredient in capsule (AIC) formulation, was administered orally once daily (QD). An alternate intermittent schedule of CC‐122 QD for five of every seven consecutive days (5/7), which improved tolerability and reduced the frequency and severity of neutropenia in a study of CC‐122 monotherapy in DLBCL, was also explored. CC‐292 was administered orally twice daily (BID) and CC‐223 was administered orally QD. Rituximab was administered on day 8 of cycle 1, day 1 of cycles 2–6, and day 1 of every third cycle thereafter. Patients in arm A received CC‐122 and CC‐223 with or without rituximab (starting at CC‐122 2 mg QD and CC‐223 20 mg QD), patients in arm B received CC‐122 plus CC‐292 with or without rituximab (starting at CC‐122 2 mg QD and CC‐292 500 mg BID), patients in arm C were treated with CC‐223 and CC‐292 (starting at CC‐223 20 mg QD and CC‐292 500 mg BID), and those in arm D received CC‐122 plus rituximab (starting at CC‐122 2 mg QD). In arm D, a CC‐122 3 mg formulated capsule was introduced with the same strength as CC‐122 3 mg AIC. Each dose level was cleared before the next was started. If unacceptable toxicity occurred at the initial dose level, dose reductions for CC‐122 (1.5 mg QD and 1 mg QD) and CC‐223 (15 mg QD) were allowed; no starting dose reductions for CC‐292 were planned. For arm A, the Safety Review Committee (SRC) determined which of the two drugs in the doublet to reduce. For arms B and D, the CC‐122 dose was reduced and for arm C, the CC‐223 dose was reduced. Assignment of patients to study arms was at the discretion of the investigator and based on slot availability per the study design.
Patients who experienced dose‐limiting toxicity (DLT) after receiving ≥1 dose of study treatment or those who received ≥80% of planned doses of CC‐122, CC‐223, CC‐292, and rituximab during cycle 1 without experiencing a DLT were considered DLT‐evaluable. If zero out of ≥3 or ≤1 out of six evaluable patients in a cohort experienced a DLT during cycle 1 in parallel dose cohorts, then dose escalation could occur. DLTs are defined in the Supplementary Materials; individual investigators performed response assessments and determined DLTs. The NTD was defined as the dose level at which ≥2 of six evaluable patients in a cohort experienced a DLT during cycle 1. […] During cycle 1, any adverse event (AE) that led to dose reduction was considered a DLT. Patients could resume CC‐122 at a reduced dose only if they recovered to grade ≤1 within 14 days of dose interruption; two dose reductions were allowed before the patient was withdrawn from the study. Dose reductions were permitted for CC‐122, CC‐223, and CC‐292; no dose reductions were allowed for rituximab, but treatment could be discontinued at the discretion of the investigator. […] For arms A, B, and D, CC‐122 dosing was modified to the intermittent 5/7‐day schedule based on SRC review and escalated until the MTD/RP2D was established. Treatment was given until disease progression, unacceptable toxicity, or patient/physician decision to withdraw consent.
^aTreatment duration defined as date of last derived dose – date of first dose + 1.
^bDefined as the ratio of actual dose received to planned dose over the treatment period.

Another data set relates to DOHH2 cells. In words: DOHH2 xenograft model. It is filed as in vivo. The note with it: DLBCL xenograft model (DOHH2, SCID mice); avadomide oral once daily, rituximab 1 mg/kg once weekly. As for the experimental part:
Female severe combined immunodeficiency (SCID) mice (CB17/Icr-Prkdcscid, Charles River) were 8 weeks old, with body weights ranging from 15.0 g to 23.2 g on day 1 of these studies. Each SCID mouse was injected subcutaneously in the right flank with 5 × 10^6 DOHH2 cells (0.2-mL cell suspension). Tumors were calipered in 2 dimensions to monitor growth as their mean volume approached 100 to 150 mm^3. Fourteen days after tumor cell implantation, mice were sorted into treatment groups of 10 mice per group. Tumors were calipered twice weekly during the study. Avadomide was suspended in 0.5% carboxymethyl cellulose (0.25% Tween-80 in deionized water). Vehicle control and avadomide were each administered via oral gavage once daily; rituximab (1 mg/kg) was administered once weekly for the duration of the study.
FIGURE S1 Change in the percentage of apoptotic cells over time (A) and in vivo tumor growth response after combination treatment with avadomide and rituximab (B). Natural killer cell activity against DOHH or RL FL cell lines determined by flow cytometry is shown (A). Female CB17 severe combined immunodeficiency mice implanted subcutaneously with DOHH2 cells were administered vehicle and avadomide once daily and rituximab given 1 mg/kg once weekly (B). SEM, standard error of the mean; TGI, tumor growth inhibition. mm^3

For a further data set, the system named is DOHH2 and RL cells. In words: Antibody-dependent, cell-mediated cytotoxicity (NK cells vs tumor cells, flow cytometry). It is filed as cell-based. The note with it: two DLBCL cell lines; NK cells pretreated with avadomide 1–100 nM, rituximab 1 μg/mL. As for the experimental part: Purified natural killer (NK) cells from patient peripheral blood mononuclear cell samples were treated with 10 ng/mL rh-IL-2 (R&D) alone or with avadomide (1–100 nM) for 24 hours at 37°C. Cells (1 × 10^6 cells/mL) from 2 FL cell lines, DOHH2 and RL, were stained with CellTrace carboxyfluorescein succinimidyl ester (CFSE; Thermo Fisher Scientific) (200 nmol/L) for 5 minutes at room temperature, then treated with dimethyl sulfoxide (DMSO; vehicle) or rituximab (1 μg/mL) for 1 hour prior to coculture. Target tumor DOHH2 and RL cells (2 × 10^4 cells) were added to DMSO or avadomide pretreated effector NK cells at a 1:5 ratio (target to effector cells) and were incubated for 4 hours at 37°C. Cells were stained with Annexin V-PE and TO-PRO-3 (Thermo Fisher Scientific) according to the manufacturer’s instructions. The percentage of tumor apoptosis was determined by sequential gating for CFSE-positive and double-positive (Annexin V-PE and TO-PRO-3–positive) cells.
FIGURE S1 Change in the percentage of apoptotic cells over time (A) and in vivo tumor growth response after combination treatment with avadomide and rituximab (B). Natural killer cell activity against DOHH or RL FL cell lines determined by flow cytometry is shown (A). […]
Background: A flow cytometer gives signals particle by particle.

In another data set the test system is Aiolos. In words: Blood pharmacodynamic biomarker Aiolos in CD3+ T cells and CD19+ B cells. The settings on record: arm B (with CC‐292), 3 h post‐dose; for median decline in Aiolos levels: 1 mg of CC‐122; for decline in Aiolos levels: 2‐mg CC‐122 group. It is filed as in vivo, human. How it is done: AEs were assessed according to the National Cancer Institute Common Terminology Criteria for AEs, version 4.03, up to 28 days after the last treatment. Blood samples for PK analysis were collected on days 15 to 28, predose, and at 1.5 and 3 h post‐dose on days 1 and 15 of cycle 1 for all dose cohorts. Additional blood samples were collected on day 15 from patients in dose level 2 of arm C to examine CC‐223 and CC‐292 steady‐state PK. Pharmacodynamic biomarkers of each novel agent were explored at baseline and cycle 1, day 1 (pre‐dose, and at 1.5 and 3 h) and cycle 1, day 15 (pre‐dose, and at 1.5 and 3 h), including cereblon modulation substrates in B and T cells in patients treated with CC‐122 and mTOR signaling pathway biomarkers (e.g., p4EBP1 and pAKT) in patients treated with CC‐223. Tumor assessments were performed at screening and at the end of even‐numbered cycles through cycle 6, then every three cycles through cycle 12, and every 6 months thereafter. Responses were assessed by the investigator per International Working Group 2007 criteria.
Safety analyses were performed on all patients who received ≥1 dose of study treatment (safety population). The PK population comprised all patients who took ≥1 dose of study treatment and had ≥1 measured drug concentration. […] The biomarker‐evaluable population comprised all patients who took ≥1 dose of study treatment and had ≥1 pharmacodynamic assessment. Safety and efficacy analyses were based on the safety population except where noted (PK and biomarkers). PK parameters were calculated using actual times relative to the most recent administration. The median duration of response (DOR) and median PFS were calculated per the Kaplan‐Meier method.
Per cent change from baseline in Aiolos in CD3+ T cells (A) and CD19+ B cells (B) and in p4EBP1 (C) and pAKT (D) at 3 h post‐dose on day 1 of cycle 1 (biomarker‐evaluable population). The change in Aiolos expression in CD3+ T cells and CD19+ B cells was calculated within each avadomide‐ and CC‐223‐containing arm. *p ≤ 0.05 versus baseline; **p ≤ 0.01 versus baseline; ***p ≤ 0.001 versus baseline; DL, dose level; MEFL, molecules of equivalent fluorescence label; NS, not significant

[1] abbreviates: Overall (all arms with the drug).

Consider rituximab [reference compound], for which the “≥1 dose interruption” value is on record as 9 (47.4) n (%) in the data set with patients with R/R DLBCL (Arm A (Avadomide + CC-223 ± R)), 2 (16.7) n (%) in the data set on patients with R/R DLBCL (Arm B (Avadomide + CC-292 ± R)), 2 (6.7) n (%) in the data set on patients with R/R DLBCL (Arm D (Avadomide + R)) and 13 (21.3) n (%) in the data set with patients with R/R DLBCL (setting [1]). For the same compound, the “≥1 dose interruption: Adverse event” value with patients with R/R DLBCL (Arm A (Avadomide + CC-223 ± R)) is given as 6 (31.6) n (%); in the data set with patients with R/R DLBCL (Arm B (Avadomide + CC-292 ± R)) it was 2 (16.7) n (%); in the data set with patients with R/R DLBCL (Arm D (Avadomide + R)), 1 (3.3) n (%); in the data set with patients with R/R DLBCL (setting [1]), 9 (14.8) n (%). In addition, the “≥1 dose interruption: Other” value in the data set on patients with R/R DLBCL (Arm A (Avadomide + CC-223 ± R)) is reported as 5 (26.3) n (%); in the data set on patients with R/R DLBCL (Arm B (Avadomide + CC-292 ± R)), 1 (8.3) n (%); in the data set on patients with R/R DLBCL (Arm D (Avadomide + R)), 2 (6.7) n (%); in the data set on patients with R/R DLBCL (setting [1]), 8 (13.1) n (%). In addition, the “tumor growth inhibition (TGI)” value in the data set on DOHH2 cells was 19%.

As for `Cc1nc2cccc(N)c2c(=O)n1C1CCC(=O)NC1=O` (stereo not shown) [CC‐122, Avadomide], in the data set with patients with R/R DLBCL (human, in vivo), the “patients with dose reductions of the drug” value came to 20.5%, the “≥1 dose interruption” value is recorded as 59 (67.0) n (%), the “≥1 dose interruption: Adverse event” value was 49 (55.7) n (%) and the “≥1 dose interruption: Other” value is listed as 35 (39.8) n (%). Moreover, in the data set with patients with R/R DLBCL (human, in vivo), the “≥1 dose interruption: Per protocol” value is given as 6 (6.8) n (%), the “≥1 dose reduction” value is 18 (20.5) n (%), the “≥1 dose reduction: Adverse event” value was 11 (12.5) n (%) and the “≥1 dose reduction: Other” value is reported as 5 (5.7) n (%). In the data set on patients with R/R DLBCL (human, in vivo), the “≥1 dose reduction: Per protocol” value is given as 1 (1.1) n (%). Besides, the “rituximab‐mediated antibody‐dependent cell‐mediated cytotoxicity” value in the data set with DOHH2 and RL cells is on record as “enhancement”. Also, the “tumor growth inhibition (TGI)” value in the data set with DOHH2 cells is 28%. Further, in the data set with Aiolos (CD3+ T cells), the “median decline in Aiolos levels” value is reported as “approximately 20%” and the “decline in Aiolos levels” value is “approximately 40%”. Moreover, in the data set with Aiolos (CD19+ B cells), the “median decline in Aiolos levels” value is approximately 5% and the “decline in Aiolos levels” value is approximately 32%.
